Literature values, collected in patent publication US20170095484A1, “METHOD OF TREATING RESISTANT NON-HODGKIN LYMPHOMA, MEDULLOBLASTOMA, AND/OR ALK+NON-SMALL CELL LUNG CANCER USING THIENOTRIAZOLODIAZEPINE COMPOUNDS” (ONCOETHIX GMBH, priority 2014, published 2017).

Columns and labels:
[1] = target: Bruton's tyrosine kinase (BTK) (Homo sapiens, UniProt Q06187); conditions: in intact cells and in cell-free systems
[2] = system: Lyn, Syk, PKA, casein kinase I, ERK1, ERK2 and p38 kinase
mTOR = mTOR (Homo sapiens, UniProt P42345)
HDAC = conditions: isoform not stated

Bruton's tyrosine kinase (BTK), sequence (Q06187 whole entry): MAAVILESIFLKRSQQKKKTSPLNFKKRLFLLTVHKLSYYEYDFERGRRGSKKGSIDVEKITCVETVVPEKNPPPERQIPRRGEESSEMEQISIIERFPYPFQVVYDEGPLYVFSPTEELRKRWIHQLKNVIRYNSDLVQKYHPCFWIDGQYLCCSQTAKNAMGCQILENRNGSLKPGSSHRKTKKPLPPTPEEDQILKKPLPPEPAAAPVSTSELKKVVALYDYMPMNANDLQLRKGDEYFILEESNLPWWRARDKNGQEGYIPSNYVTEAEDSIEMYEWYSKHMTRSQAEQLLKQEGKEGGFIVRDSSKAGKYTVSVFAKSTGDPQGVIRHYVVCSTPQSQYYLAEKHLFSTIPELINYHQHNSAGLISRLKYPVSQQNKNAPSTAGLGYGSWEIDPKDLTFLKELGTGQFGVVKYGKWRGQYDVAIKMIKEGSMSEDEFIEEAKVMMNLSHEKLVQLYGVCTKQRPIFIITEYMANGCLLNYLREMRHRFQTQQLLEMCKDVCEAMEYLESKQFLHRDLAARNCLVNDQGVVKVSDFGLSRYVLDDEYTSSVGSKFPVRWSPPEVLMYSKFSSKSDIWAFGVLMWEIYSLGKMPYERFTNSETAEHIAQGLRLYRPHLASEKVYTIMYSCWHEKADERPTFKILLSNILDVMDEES

## CC1=C(O)C(=O)[C@@H]2O[C@@H]2C1=O [Terreic acid]
[1]
  effect on the catalytic activity of BTK: Inhibits the catalytic activity of BTK
[2]
  effect on the activities of Lyn, Syk, PKA, casein kinase I, ERK1, ERK2 and p38 kinase: little or no effect
PKC
  effect on the activity of PKC: without affecting the activity of PKC

## CO[C@H]1C[C@@H]2CC[C@@H](C)[C@@](O)(O2)C(=O)C(=O)N2CCCC[C@H]2C(=O)O[C@H]([C@H](C)C[C@@H]2CC[C@@H](OCCO)[C@H](OC)C2)CC(=O)[C@H](C)/C=C(\C)[C@@H](O)[C@@H](OC)C(=O)[C@H](C)C[C@H](C)/C=C/C=C/C=C/1C [Everolimus]
mTOR
  IC50: 1.6 to 2.4 nM

## Trichostatin A
HDAC
  IC50: ~1.8 nM
